Measured values taken from the supplement of paper PMC10307832.

Key:
Experiment in all cases: relative viability (nuclei count vs DMSO), 5 days (fraction); higher = more cells survive
SK-LU-1 = tested on: SK-LU-1
Summary of the method: (§1)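 Relative viability equals treated-well nuclei counts divided by vehicle-well nuclei counts. Counts came from 4× images of lung cancer cell lines grown in 1536-well plates for 5 days after pin-tool dosing on the day after seeding. Dosing used one drug alone or a fixed anchor-drug dose plus five library-drug doses (not always all listed) in √10 steps, and values are medians of duplicate plates.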

NCI-H3122 = tested on: NCI-H3122
Summary of the method: as §1

NCI-H2087 = tested on: NCI-H2087
Summary of the method: as §1

HCC-44 = tested on: HCC-44
Summary of the method: as §1

LCLC-103H = tested on: LCLC-103H
Summary of the method: as §1

201T = tested on: 201T
Summary of the method: as §1

RERF-LC-KJ = tested on: RERF-LC-KJ
Summary of the method: as §1

NCI-H1437 = tested on: NCI-H1437
Summary of the method: as §1

NCI-H1793 = tested on: NCI-H1793
Summary of the method: as §1

NCI-H1944 = tested on: NCI-H1944
Summary of the method: as §1

LCLC-97TM1 = tested on: LCLC-97TM1
Summary of the method: as §1

LXF-289 = tested on: LXF-289
Summary of the method: as §1

NCI-H322M = tested on: NCI-H322M
Summary of the method: as §1

BEN = tested on: BEN
Summary of the method: as §1

NCI-H727 = tested on: NCI-H727
Summary of the method: as §1

NCI-H2405 = tested on: NCI-H2405
Summary of the method: as §1

NCI-H2228 = tested on: NCI-H2228
Summary of the method: as §1

HCC-827 = tested on: HCC-827
Summary of the method: as §1

NCI-H1650 = tested on: NCI-H1650
Summary of the method: as §1

CAL-12T = tested on: CAL-12T
Summary of the method: as §1

NCI-H647 = tested on: NCI-H647
Summary of the method: as §1

HOP-62 = tested on: HOP-62
Summary of the method: as §1

NCI-H1395 = tested on: NCI-H1395
Summary of the method: as §1

**Q.** What does the source list for `CC1(C)CCC(c2ccc(Cl)cc2)=C(CN2CCN(c3ccc(C(=O)NS(=O)(=O)c4ccc(N[C@H](CCN5CCOCC5)CSc5ccccc5)c(S(=O)(=O)C(F)(F)F)c4)cc3)CC2)C1` [Navitoclax] + Cc1cc(Nc2cc(N3CCN(C)CC3)nc(Sc3ccc(NC(=O)C4CC4)cc3)n2)n[nH]1 [Tozasertib] (partner 0.1 µM)?
**A.** relative viability (SK-LU-1; first compound 0.005 µM): 0.326; relative viability (SK-LU-1; first compound 0.01581 µM): 0.324; relative viability (SK-LU-1; first compound 0.05 µM): 0.308; relative viability (SK-LU-1; first compound 0.1581 µM): 0.318; relative viability (SK-LU-1; first compound 0.5 µM): 0.298; relative viability (NCI-H3122; first compound 0.005 µM): 0.353; relative viability (NCI-H3122; first compound 0.01581 µM): 0.286; relative viability (NCI-H3122; first compound 0.05 µM): 0.481; relative viability (NCI-H3122; first compound 0.1581 µM): 0.306; relative viability (NCI-H3122; first compound 0.5 µM): 0.373; relative viability (NCI-H2087; first compound 0.005 µM): 0.245; relative viability (NCI-H2087; first compound 0.01581 µM): 0.236; relative viability (NCI-H2087; first compound 0.1581 µM): 0.197; relative viability (NCI-H2087; first compound 0.5 µM): 0.294; relative viability (HCC-44; first compound 0.05 µM): 1.1; relative viability (HCC-44; first compound 0.5 µM): 0.613; relative viability (LCLC-103H; first compound 0.005 µM): 0.505; relative viability (LCLC-103H; first compound 0.01581 µM): 0.516; relative viability (LCLC-103H; first compound 0.05 µM): 0.442; relative viability (LCLC-103H; first compound 0.1581 µM): 0.404; relative viability (LCLC-103H; first compound 0.5 µM): 0.466; relative viability (201T; first compound 0.005 µM): 0.975; relative viability (201T; first compound 0.01581 µM): 1.04; relative viability (201T; first compound 0.05 µM): 0.778; relative viability (201T; first compound 0.1581 µM): 0.931; relative viability (201T; first compound 0.5 µM): 1.01; relative viability (RERF-LC-KJ; first compound 0.005 µM): 0.507; relative viability (RERF-LC-KJ; first compound 0.01581 µM): 0.369; relative viability (RERF-LC-KJ; first compound 0.05 µM): 0.536; relative viability (RERF-LC-KJ; first compound 0.1581 µM): 0.526; relative viability (RERF-LC-KJ; first compound 0.5 µM): 0.464; relative viability (NCI-H1437; first compound 0.005 µM): 0.408; relative viability (NCI-H1437; first compound 0.01581 µM): 0.407; relative viability (NCI-H1437; first compound 0.05 µM): 0.357; relative viability (NCI-H1437; first compound 0.1581 µM): 0.46; relative viability (NCI-H1437; first compound 0.5 µM): 0.386; relative viability (NCI-H1793; first compound 0.005 µM): 0.338; relative viability (NCI-H1793; first compound 0.01581 µM): 0.394; relative viability (NCI-H1793; first compound 0.1581 µM): 0.278; relative viability (NCI-H1793; first compound 0.5 µM): 0.275; relative viability (NCI-H1944; first compound 0.005 µM): 0.254; relative viability (NCI-H1944; first compound 0.01581 µM): 0.246; relative viability (NCI-H1944; first compound 0.05 µM): 0.241; relative viability (NCI-H1944; first compound 0.1581 µM): 0.259; relative viability (NCI-H1944; first compound 0.5 µM): 0.206; relative viability (LCLC-97TM1; first compound 0.005 µM): 0.238; relative viability (LCLC-97TM1; first compound 0.01581 µM): 0.164; relative viability (LCLC-97TM1; first compound 0.05 µM): 0.255; relative viability (LCLC-97TM1; first compound 0.1581 µM): 0.193; relative viability (LCLC-97TM1; first compound 0.5 µM): 0.224; relative viability (LXF-289; first compound 0.005 µM): 0.192; relative viability (LXF-289; first compound 0.01581 µM): 0.222; relative viability (LXF-289; first compound 0.05 µM): 0.15; relative viability (LXF-289; first compound 0.1581 µM): 0.193; relative viability (LXF-289; first compound 0.5 µM): 0.217; relative viability (NCI-H322M; first compound 0.005 µM): 0.48; relative viability (NCI-H322M; first compound 0.01581 µM): 0.579; relative viability (NCI-H322M; first compound 0.05 µM): 0.491; relative viability (NCI-H322M; first compound 0.1581 µM): 0.548; relative viability (NCI-H322M; first compound 0.5 µM): 0.532; relative viability (BEN; first compound 0.005 µM): 0.536; relative viability (BEN; first compound 0.01581 µM): 0.568; relative viability (BEN; first compound 0.05 µM): 0.522; relative viability (BEN; first compound 0.1581 µM): 0.451; relative viability (BEN; first compound 0.5 µM): 0.421; relative viability (NCI-H727; first compound 0.005 µM): 0.621; relative viability (NCI-H727; first compound 0.01581 µM): 0.692; relative viability (NCI-H727; first compound 0.1581 µM): 0.676; relative viability (NCI-H727; first compound 0.5 µM): 0.646; relative viability (NCI-H2405; first compound 0.005 µM): 0.761; relative viability (NCI-H2405; first compound 0.01581 µM): 0.787; relative viability (NCI-H2405; first compound 0.05 µM): 0.735; relative viability (NCI-H2405; first compound 0.1581 µM): 0.731; relative viability (NCI-H2405; first compound 0.5 µM): 0.681; relative viability (NCI-H2228; first compound 0.005 µM): 0.343; relative viability (NCI-H2228; first compound 0.01581 µM): 0.296; relative viability (NCI-H2228; first compound 0.1581 µM): 0.285; relative viability (NCI-H2228; first compound 0.5 µM): 0.212; relative viability (HCC-827; first compound 0.005 µM): 0.437; relative viability (HCC-827; first compound 0.01581 µM): 0.453; relative viability (HCC-827; first compound 0.05 µM): 0.384; relative viability (HCC-827; first compound 0.1581 µM): 0.39; relative viability (HCC-827; first compound 0.5 µM): 0.454; relative viability (NCI-H1650; first compound 0.005 µM): 0.363; relative viability (NCI-H1650; first compound 0.01581 µM): 0.419; relative viability (NCI-H1650; first compound 0.05 µM): 0.415; relative viability (NCI-H1650; first compound 0.1581 µM): 0.34; relative viability (NCI-H1650; first compound 0.5 µM): 0.356; relative viability (CAL-12T; first compound 0.005 µM): 0.273; relative viability (CAL-12T; first compound 0.01581 µM): 0.354; relative viability (CAL-12T; first compound 0.05 µM): 0.312; relative viability (CAL-12T; first compound 0.1581 µM): 0.347; relative viability (CAL-12T; first compound 0.5 µM): 0.308; relative viability (NCI-H647; first compound 0.005 µM): 0.301; relative viability (NCI-H647; first compound 0.01581 µM): 0.268; relative viability (NCI-H647; first compound 0.05 µM): 0.292; relative viability (NCI-H647; first compound 0.1581 µM): 0.27; relative viability (NCI-H647; first compound 0.5 µM): 0.251; relative viability (HOP-62; first compound 0.005 µM): 0.389; relative viability (HOP-62; first compound 0.01581 µM): 0.4; relative viability (HOP-62; first compound 0.05 µM): 0.366; relative viability (HOP-62; first compound 0.1581 µM): 0.299; relative viability (HOP-62; first compound 0.5 µM): 0.374; relative viability (NCI-H1395; first compound 0.005 µM): 0.703; relative viability (NCI-H1395; first compound 0.01581 µM): 0.738; relative viability (NCI-H1395; first compound 0.05 µM): 0.757; relative viability (NCI-H1395; first compound 0.1581 µM): 0.787; relative viability (NCI-H1395; first compound 0.5 µM): 0.81
